Data set [1] concerns P. aeruginosa PA14 4.13 (phoQ). As to the kind of experiment: microbe, parasite or virus in culture. Particulars: Pseudomonas aeruginosa.
For data set [2] the following is noted: 25% (v/v) human serum in 0.1 M TRIS buffer pH 7.4, peptide 200 μM, 37 °C, 0/24/48/72 h, LC-MS UV trace vs 4-hydroxybenzoic acid internal standard, n = 3. How it is done:
Human serum was diluted in 0.1 M filtered TRIS buffer pH 7.4 (50%, 1:1, v/v). Selected peptides were diluted in 0.1 M filtered TRIS buffer pH 7.4 to a concentration of 400 μM and 0.1 mg/mL 4- hydroxybenzoic acid was added as internal standard. Aliquots of peptide solution (300 μL) were added to aliquots of serum (300 μL) in sterile 1.5 mL Eppendorf tubes, to reach a peptide concentration of 200 μM and 25% (v/v) human serum during the assay. Samples, in triplicate, were incubated at 37 °C under gentle stirri ng (200 rpm). At different time points (0, 24, 48 and 72 hours), 100 μL of each sample was collected and quenched by precipitating serum proteins through the addition of (0.1 M) ZnSO4·7 H2O / ACN (1:1) (0.1 M, 100 μL) and cooling in ice bath for 10 minutes. Protein precipitates were pelleted under centrifugation (5 min at 14’000 rpm) and the supernatants were analysed by LC-MS. Peaks corresponding to the internal standard and the undegraded peptides were integrated from the area under the curves (AUC) of UV traces, with the ratio peptide/standard at t = 0 h as 100%.
Figure S7. Serum stability assay of the respective compound (200 μM), incubated with human serum (25% in TRIS buffer, 0.1 M, pH 7.4) at 37 °C. Aliquots were taken at different time (0 / 24 / 48 and 72 h). Undegraded peptide values determined by RP -HPLC analysis usi ng hydroxybenzoic acid as internal standard. Measured in triplicates and the data represent mean ± SD, n […]
(1 picture or pasted object on this page, not shown here)

The next data set has as its target T1, DnaK (Escherichia coli, UniProt P0A6Y8).
T1 construct: made in house; host or cells: E. coli BL21(DE3), pET28a T7 vector (synthetic gene, GenScript)
As to the kind of experiment: Microscale thermophoresis with His-Tag-labeled DnaK. Type of data set: binding. Particulars: MST buffer. How it is done:
A plasmid containing the DnaK insert was designed in SnapGene and ordered commercially as a synthetic gene (Figure S11). Chemically competent BL21(DE3) cells were transformed with the plasmid vector (GenScript), and positive transformants were selected on LB + Kanamycin agar. For protein expression, 6 mL of overnight cultures inoculated with a single colony were used to initiate shake-flask expression at 300 mL scale in LB + kanamycin ([…]) + 1 mM IPTG. The flasks were cultured overnight at 220 rpm, 37 °C, and the bacteria were harvested by centrifugation the next day. Pelleted cells were stored at −20 °C. […] The collected fractions were analyzed by SDS-PAGE. […]
DnaK labeling was performed using the Nanotemper Monolith His-Tag Labeling Kit RED-tris-NTA Second Generation. […] The fluorescence variation between the samples was measured in 4 replicates with the Monolith NT.115 device in Monolith NT.115 Premium Capillaries and analyzed with the MOcontrol software (Figures S13–S15).
To each sample, 10 μL of 40 nM His-Tag-labeled DnaK was added, resulting in a final volume of 20 μL per sample. The fluorescence variations between the samples were measured by using the Monolith NT.115 device with Monolith NT.115 Premium Capillaries. The data were analyzed with MOcontrol software to determine the binding affinity between L-onc and His-Tag-labeled DnaK (Figure S16).
A general note: In MST a laser heats a spot of the sample, and binding alters the fluorescence response.

Values after ≈ are worked out from the molar mass of the structure shown. Values joined by “and” are separate entries in the source; they are usually repeats but may differ in a detail not shown here. Equal values may be shown once. “Also recorded” adds a separate entry of the source. Read-outs that look alike come from different tables or passages of the source. Non-standard residues stand in square brackets, D forms with d. Residues, ends and D or L forms follow the SMILES beside them. No end group written: not given here.

T1 sequence (P0A6Y8 whole entry, species assumed): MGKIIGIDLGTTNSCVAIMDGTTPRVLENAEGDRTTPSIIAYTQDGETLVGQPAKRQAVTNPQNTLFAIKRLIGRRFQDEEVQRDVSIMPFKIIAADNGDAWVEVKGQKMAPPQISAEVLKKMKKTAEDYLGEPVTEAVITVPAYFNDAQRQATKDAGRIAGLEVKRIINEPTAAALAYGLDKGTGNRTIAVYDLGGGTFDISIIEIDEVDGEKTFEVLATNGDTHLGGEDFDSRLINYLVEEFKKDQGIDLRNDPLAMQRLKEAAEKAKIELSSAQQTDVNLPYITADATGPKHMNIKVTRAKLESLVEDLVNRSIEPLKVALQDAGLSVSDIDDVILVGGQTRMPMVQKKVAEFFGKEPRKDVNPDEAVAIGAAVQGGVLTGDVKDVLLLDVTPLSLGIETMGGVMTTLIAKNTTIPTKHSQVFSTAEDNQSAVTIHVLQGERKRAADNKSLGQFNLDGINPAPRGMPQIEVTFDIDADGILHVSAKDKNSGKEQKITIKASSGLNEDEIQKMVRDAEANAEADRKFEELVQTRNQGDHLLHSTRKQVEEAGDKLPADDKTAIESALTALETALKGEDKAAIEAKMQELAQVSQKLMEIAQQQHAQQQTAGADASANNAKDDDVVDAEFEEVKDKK

For the compound `CC[C@H]1OC(=O)[C@H](C)[C@@H](O[C@H]2C[C@@](C)(OC)[C@@H](O)[C@H](C)O2)[C@H](C)[C@@H](O[C@@H]2O[C@H](C)C[C@H](N(C)C)[C@H]2O)[C@](C)(O)C[C@@H](C)CN(C)[C@H](C)[C@@H](O)[C@]1(C)O` [AZM, azithromycin, reference compound], the MIC lay within 16 to 32 mg/L (≈ 21.4 to 42.7 µM) in data set [1] (PA14, pH 7.4, read-out: MIC P. aeruginosa PA14 4.13 (phoQ), 12.5% MHB, polymyxin B resistant strain, 12.5% MHB pH 7.4, 16–20 h at 37 °C) and 16 to 32 mg/L (≈ 21.4 to 42.7 µM) in data set [1] (PA14, pH 7.4, read-out: MIC P. aeruginosa PA14 4.13, supplement CSV, 12.5% MH pH 7.4). Take `CC[C@H](C)[C@H](NC(=O)[C@@H](CCCNC(=N)N)NC(=O)[C@H](CCCNC(=N)N)NC(=O)[C@@H]1CCCN1C(=O)[C@@H]1CCCN1C(=O)[C@H](CCCNC(=N)N)NC(=O)[C@@H]1CCCN1C(=O)[C@H](CCCNC(=N)N)NC(=O)[C@@H]1CCCN1C(=O)[C@H](CC(C)C)NC(=O)[C@H](Cc1ccc(O)cc1)NC(=O)[C@@H]1CCCN1C(=O)[C@@H]1CCCN1C(=O)[C@H](CCCCN)NC(=O)[C@H](CC(=O)O)NC(=O)[C@@H](N)C(C)C)C(=O)N[C@@H](Cc1ccc(O)cc1)C(=O)N[C@@H](CC(N)=O)C(=O)N[C@H](CCCNC(=N)N)C(N)=O` [Onc112, reference compound] (H-VDKPPYLPRPRPPR[dR]IYN[dR]-NH2): the “Serum stability (undegraded peptide)” value in data set [2] is listed as “essentially stable to degradation over 24 h”.

Turning to “VDKPPYLPRPRPPRRIYNR [sr-Onc] (VDKPPYLPRPRPPRRIYNR-NH2; also: all 19 residues stereorandomized (1:1 L/D mixture)) [fully stereorandomized oncocin]”, the DnaK binding check entry with DnaK (20 nM His-Tag-labeled DnaK, 50 μM peptide, 4 replicates) is “negative for binding; also recorded: no detectable binding to DnaK”.

Turning to “VDKPPYLPRPRPPRRIYNR-NH2 [L-Onc, reference compound]”, the “Serum stability (undegraded peptide)” value in data set [2] is “rapidly degraded”. For the same compound, the Kd on DnaK (2-fold serial dilution from 100 μM, His-Tag-labeled DnaK, read-out: KD, apparent binding to DnaK) is 29.8 µM and ~30 µM.

Source of the values: paper PMC11571207, “Stereorandomized Oncocins with Preserved Ribosome Binding and Antibacterial Activity” (Journal of Medicinal Chemistry, 2024).
